Experimental findings from patent US7186819B2, “Glutamate receptor and utilization thereof” (Ajinomoto Co., Inc., priority 2002, dated 2007) are described below.

One test concerns vagal gastric branch. The test can be described thus: Vagal gastric branch afferent nerve activity recording after administration to stomach. Format: in vivo, rat. The note with it: 150 mM administered to stomach; urethane-anesthetized fasted Wistar rats; FIG. 4.
In a further test the target is T1, mGluRTβa (Rattus norvegicus, UniProt P23385).
T1 construct: expressed in transfected cells; host or cells: Xenopus oocytes injected with cRNA transcribed from pCRII-TOPO/mGluRTβ
T1 sequence (P23385 410-1199): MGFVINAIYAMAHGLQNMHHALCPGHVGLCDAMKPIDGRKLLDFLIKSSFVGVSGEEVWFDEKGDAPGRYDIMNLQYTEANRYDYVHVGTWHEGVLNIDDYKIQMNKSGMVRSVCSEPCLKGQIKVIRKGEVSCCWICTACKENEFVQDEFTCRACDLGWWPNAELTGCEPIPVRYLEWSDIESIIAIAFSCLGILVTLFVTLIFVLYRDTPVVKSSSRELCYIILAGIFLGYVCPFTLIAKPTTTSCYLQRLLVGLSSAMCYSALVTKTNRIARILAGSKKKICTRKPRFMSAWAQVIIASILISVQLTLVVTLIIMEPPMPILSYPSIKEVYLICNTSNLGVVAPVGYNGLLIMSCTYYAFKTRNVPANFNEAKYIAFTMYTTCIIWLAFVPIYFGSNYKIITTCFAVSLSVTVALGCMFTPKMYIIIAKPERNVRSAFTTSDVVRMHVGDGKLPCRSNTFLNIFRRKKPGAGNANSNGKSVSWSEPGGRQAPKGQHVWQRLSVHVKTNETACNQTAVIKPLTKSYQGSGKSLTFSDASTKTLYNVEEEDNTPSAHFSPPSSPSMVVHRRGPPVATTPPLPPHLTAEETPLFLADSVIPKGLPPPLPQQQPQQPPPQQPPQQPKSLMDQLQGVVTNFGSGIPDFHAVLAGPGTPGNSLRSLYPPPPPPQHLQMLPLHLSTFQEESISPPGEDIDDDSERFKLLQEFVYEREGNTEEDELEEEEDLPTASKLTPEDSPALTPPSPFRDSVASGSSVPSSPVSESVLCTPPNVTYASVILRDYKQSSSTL
The test can be described thus: Two-electrode membrane potential fixation measurement of calcium-dependent chloride current in Xenopus oocytes expressing mGluRTβa. The format is cell-based. The note with it: medium containing 50 mM, potential fixed at -70 mV, current disappeared on substituting the medium again, FIG. 6. The procedure: (§1) Oocyte-expressing strain of Xenopus was used for analysis of function of mGluR1 mRNA derived from circumvallate papilla of rats.
(§2) Female Xenopus (purchased from Watanabe Zoshoku) was bred in a fish tank until oocytes were isolated. The Xenopus was anesthetized with tricain methanesulfonate (MS 222, Sigma) dissolved in deionized water in a concentration of 1 g/L followed by buffering with NaHCO3 (500 mg/L). Anatomy was conducted by hand and oocytes in stages V and VI were recovered from ovary and incubated (for 30 minutes to 1 hour) in a 0.2% collagenase S-1 (Nitta Gelatin) until dissociation took place. After treating with collagenase, the oocytes were washed; follicles were removed; selection was conducted under a microscope; and incubation was carried out at 18° C. for one night.
(§3) Since the polymerase remains […] in PCR fragments, PCR-amplified mGluRTβa and mGluRTγa template DNA were inserted into pCRII-TOPO vector (Invitrogen) by a TOPO-TA cloning reaction. pCRII-TOPO/mGluRTγ vector and pCRII-TOPO/mGluRTβ vector were made into straight lines using EcoRV and XbaI, respectively, extracted with a mixture of phenol and chloroform and precipitated with ethanol together with sodium acetate. After a sequence analysis, cRNA was prepared using a transcription kit for Sp6 promoter made by Ambion (mMESSAGE mMACHINE kit) binding to pCRII-TOPO promoter.

A further test addresses T2, mGluRTγa (Rattus norvegicus, UniProt P23385).
T2 construct: expressed in transfected cells; host or cells: Xenopus oocytes injected with cRNA transcribed from pCRII-TOPO/mGluRTγ
The test can be described thus: Two-electrode membrane potential fixation measurement of calcium-dependent chloride current in Xenopus oocytes expressing mGluRTγa. The format is cell-based. The settings on record: potential fixed at -70 mV. The procedure:
as §1, §2, §3

Test [1] concerns oocytes into which cRNA was not injected. Kind of test: Two-electrode membrane potential fixation measurement of membrane current in oocytes not injected with cRNA. The settings on record: data not shown. Format: cell-based, Xenopus. The procedure:
as §2

T2 sequence (P23385 410-1199): as above
Procedure for vagal gastric branch: Rats (Wistar strain, males, 8 to 10 weeks age; Nippon Charles Liver) were fasted for 18 hours, laparotomy was conducted under anesthetization with urethane (1 g/kg; i.p.) and vagal gastric branch was exfoliated to an extent of about 5 mm. After vagal bundle was cut, it was placed on a small operation stand (8×6 mm), fat and bonded tissues around that were carefully detached and the terminal fiber at the side of organ was placed on a dipole electrode made of platinum for recording and insulated from the surrounding tissues by a mixture of liquid paraffin-vaseline (1:1). […]
Nerve action potential was amplified to an extent of 10,000-fold by a micropotential amplifier (DAM-80 manufactured by WPI); and after noise was reduced by a Vessel filter (4-pole, High Cut 10 Hz, Low Cut 1 KHz), it was subjected to an A/D conversion (Powerlab 4sp, manufactured by ADI Instruments, Inc.) and incorporated into a computer (sampling rate 3 KHz, iBook). At the same time, an amplified signal was separated by a window discriminator (DSE-435 manufactured by Daiya Medical Co., Ltd.) into a noise component and a nerve signal component together with monitoring by an oscilloscope, integrated for 5 seconds by a spike counter (DSE-335P manufactured by Daiya Medical Co., Ltd.) and recorded in a chart recorder (WT-465G manufactured by Nippon Koden Corporation). […]

On to `N[C@@H](CCC(=O)[O-])C(=O)[O-].[Na+].[Na+]` [MSG, sodium L-glutamate], for which the “Centripetal activity of vagal gastric branch” value in the test with vagal gastric branch is listed as “accelerated”. Also, the “Membrane current (calcium-dependent chloride current)” value was “continuous introvert current was induced” at mGluRTβa, “same introvert current was also observed” at mGluRTγa and “not observed” in test [1].
